In patent US11253535B2, “Carboline derivatives or phosphorous derivatives for the treatment of muscular myopathies and traumatic injuries to muscles” (Centre National de la Recherche Scientifique (C.N.R.S), priority 2015, dated 2022):

Key:
[1] = system: mdx mouse cardiomyocytes; experiment: Spontaneous calcium activity (spikes and calcium waves) of mdx mouse cardiomyocytes; assay type: cell-based
Description: FIG. 4: Frequency of spontaneous spikes and calcium waves in WT, mdx and mdx/CD38^−/− mouse cardiomyocytes. 1-way-ANOVA test with a Bonferroni correction. Significance level set at 0.05, with a *P<0.05; **P<0.01, ***P<0.001. (A) The spontaneous calcium activity of cardiomyocytes (calcium spikes and waves) of the mdx/CD38^−/− mouse is reduced by 80% compared to the values of mdx mice. (B) The application of the CD38 CZ-27 antagonist to mdx mouse cardiomyocytes reduces the frequency of spikes by about 70%.
Evaluation of the Spontaneous Calcium Activity of Mouse Cardiomyocytes:
In the mdx cardiomyocyte, it was shown that the calcium reserves of the sarcoplasmic reticulum were reduced, probably due to Ca^2+ leakage through RyRs that are abnormally sensitized.
In order to study the impact of the absence of CD38 on these parameters, the different parameters of spontaneous spike activity and calcium waves were studied. […] The increased frequency of these spontaneous calcium events may lead to arrhythmias (when they spread to the whole heart tissue) as well as to a long-term cardiac hypertrophy associated with a change in the Ca^2+-dependent gene expression.
The protective effect of the CD38 deletion in mice was then observed by comparing cardiomyocytes of the double-mutant model with cardiomyocytes of mdx mice. The spontaneous calcium activity of mdx/CD38^−/− cardiomyocytes is very small compared to mdx (spikes and calcium waves, see FIG. 4A). […] CD38 deletion in mdx/CD38^−/− favor its protective role in DMD, with the reversal of many deleterious parameters in mdx mice (spontaneous calcium spikes and waves, sensitization of RyRs).

[2] = system: DMD myotubes; experiment: Spontaneous calcium activity (calcium waves) in DMD patient myotubes, Fluo-4 AM, confocal microscopy; assay type: cell-based, human; details: for reduction in the amplitude of the calcium waves (oscillations): 100 μM; for reduction in the number of myotubes with spontaneous calcium activity: DMD myotubes preincubated, 100 μM (FIG. 5D, 8D)
Description: (A) Characterization of spontaneous calcium waves in DMD myotubes. Healthy myotubes mostly show low activity (13% of myotubes), while 49% of untreated DMD myotubes show significant spontaneous calcium activity. The amplitude of calcium oscillations in untreated DMD myotubes is increased by 60% compared with healthy myotubes. (B) Examples of trace recordings of a representative region of interest in myotubes and DMDs. (C) Amplitude of spontaneous calcium oscillations in DMD myotube cultures in the presence of modulators of the CD38 enzyme pathway. […] Similarly, 8-Bromo-cADPR (cADPR antagonist, 100 μM, n=48) and NED-19 (NAADP antagonist, 100 μM, n=167) reduce by 40% the amplitude of calcium oscillations in DMD myotubes. […] The t-test was used with a significance level set at 0.05, with a *P<0.05; **P<0.01, ***P<0.001, n=cell number.
(A) DMD myotubes loaded with a calcium probe (Fluo 4). Examples of trace recordings of a representative region of interest in control DMD myotubes (B) and treated for 30 min with NAADP (100 μM) (C). […] The chi square (proportion of active cells) and t-test (mean peak amplitude) were used with a significance level set at 0.05, with a *P<0.05 ***P<0.001.
In parallel with mouse cardiomyocyte studies, two lines of human skeletal myotubes (a patient cell line with DMD and a control line) were used. Human myotubes are particularly suitable for evaluating a pharmacological tool from a therapy perspective. The inventors first tested the CZ-27, the NED-19 antagonist of NAADP (the most efficient messenger produced by CD38), and 8-bromo-cADP-ribose (a cADP-ribose antagonist produced by CD38. The cells were loaded with Fluo-4 AM and recorded by confocal microscopy.
The amplitude of the calcium waves was reduced by 40% (see FIG. 5A) compared to that of the untreated DMD myotubes. […] A 40% reduction in the amplitude of the calcium waves is also observed when the cells are treated with 100 μM of 8-Bromo-cADPR or NED-19 (see FIG. 5C). When cultures of DMD myotubes were preincubated with NED-19, the number of myotubes with spontaneous calcium activity was reduced in a dose-dependent manner for concentrations of 2 to 300 μM (60% to 100 μM reduction) (see FIG. 5D). In addition, when cultures of DMD myotubes were preincubated with NAADP at 100 μM, the number of myotubes with spontaneous calcium activity was reduced (75% reduction with 100 μM NAADP) (see FIG. 8D).

[3] = DMD myotubes, vs untreated DMD myotubes (FIG. 5C)

`CCCCOP(=O)(O)OC[C@@H]1O[C@H]([n+]2cccc(C(N)=O)c2)C(F)C1O` (stereo partly drawn) [CZ-27, 2′-deoxy-2′-fluoro-β-nicotinamide arabinofuranoside-5′-(n-butyl) phosphate] was tested, and the “frequency of spontaneous calcium spikes” value ([1]; mdx mouse cardiomyocytes (FIG. 4B)) was “reduction in spikes frequency”, the “reduction of the frequency of spontaneous calcium spikes” value ([1]; mdx mouse cardiomyocytes, application of the compound (FIG. 4B)) was “about 70%” and the “amplitude of spontaneous calcium oscillations” value ([2]; DMD myotubes (FIG. 5C)) was “strongly reduces”. The “reduction in the amplitude of the calcium waves, dose-dependent” value ([2]; DMD myotubes preincubated with 10, 50 and 100 μM, vs untreated DMD myotubes (FIG. 5C)) was “up to 80%”.

With `N=c1c2nc(Br)n3c2ncn1[C@H]1O[C@H](COP(=O)(O)OP(=O)(O)OC[C@H]2O[C@@H]3C(O)C2O)C(O)C1O` (some centres unmarked) [8-Bromo-cADPR, 8-bromo adenosine diphosphate cyclic ribose] the “reduction in the amplitude of the calcium waves (oscillations)” value [2, 3] was 40%.

In the case of `COc1ccc([C@H]2N[C@H](C(=O)O)Cc3c2[nH]c2ccccc32)cc1CN1CCN(c2ccccc2F)CC1` [NED-19, (1R, 3S)-1-[3-[[4-(2-fluorophenyl)piperazin-1-yl]methyl]-4-methoxyphenyl]-2,3,4,9-tetrahydro-1H-pyrido[3,4-b]indole-3-carboxylic acid], the “reduction in spontaneous calcium wave activity” value ([1]; mdx mouse cardiomyocytes (FIG. 4C)) is reported as “about 90%”, the “number of cardiomyocytes exhibiting spontaneous calcium activity” value ([1]; mdx mouse cardiomyocytes incubated with compound (not shown)) is reported as “significant reduction” and the “frequency of spontaneous calcium waves” value ([1]; mdx mouse cardiomyocytes, rare cases of spontaneous activity in presence of compound (FIG. 4C)) is reported as “greatly reduced”. For the same compound, the “reduction in the number of myotubes with spontaneous calcium activity” value [2] was 60%, the “reduction in the amplitude of the calcium waves (oscillations)” value [2, 3] was 40% and the “percentage of cells with spontaneous calcium activity” value ([2]; DMD myotubes, 2-300 μM (FIG. 5D)) was “strongly reduced dose-dependently”.

In the case of `Nc1ncnc2c1ncn2[C@@H]1O[C@H](COP(=O)(O)OP(=O)(O)OC[C@H]2O[C@@H]([n+]3cccc(C(=O)[O-])c3)[C@H](O)[C@@H]2O)[C@@H](O)[C@H]1OP(=O)(O)O` [NAADP, nicotinic acid adenine dinucleotide phosphate], the “reduction in the number of myotubes with spontaneous calcium activity” value [2] is reported as 75%, the “percentage of cells exhibiting spontaneous calcium activity” value ([2]; DMD myotubes treated 30 min, 100 μM (FIG. 8D)) is reported as “greatly reduced” and the “amplitude of the spontaneous calcium oscillations” value ([2]; DMD myotubes treated 30 min, 100 μM (FIG. 8E)) is reported as “strongly reduced”.
